According to US10124004B2, “Pyrido[3,4-d]pyrimidine derivative and pharmaceutically acceptable salt thereof” (Teijin Pharma Limited, priority 2015, dated 2018):

Tests used:
CDK2/cyclin A2 = biological target: T1, CDK2/cyclin A2 (Homo sapiens, UniProt P24941); assay: Human CDK2/cyclin A2 inhibitory activity (QS S Assist CDK2/Cyclin A2_FP Kit, IMAP fluorescence polarization); type: biochemical; conditions: 50% inhibitory concentration against CDK2/cyclin A2, given as class symbol
T1 construct: purchased Carna Biosciences, Inc. QS S Assist CDK2/Cyclin A2_FP Kit
Outline: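 Kinase activity read as fluorescence polarization (485/535 nm) after phosphorylated fluorescent substrate binds IMAP reagent (30 min, RT, dark). Enzyme (2.5 ng/well) reacted 60 min at RT with ATP/substrate/metal in HEPES pH 7.4 buffer with Tween 20 and DTT; no-enzyme wells define 0% activity; IC50 by curve fit.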

CDK4/cyclin D3 = biological target: T2, CDK4/cyclin D3 (Homo sapiens, UniProt P11802); assay: Human CDK4/cyclin D3 inhibitory activity (QS S Assist CDK4/Cyclin D3_FP Kit, IMAP fluorescence polarization); type: biochemical; conditions: 50% inhibitory concentration against CDK4/cyclin D3, given as class symbol
T2 construct: purchased Carna Biosciences, Inc. QS S Assist CDK4/Cyclin D3_FP Kit
Outline: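 Percent inhibition, relative to DMSO with and without enzyme, was curve-fitted to give IC50 from polarization (ex 485, em 535 nm). The 45-min room-temperature reaction used 12.5-25 ng/well enzyme, kit ATP/substrate/metal mix, and HEPES pH 7.4 buffer with Tween20 and DTT, followed by 30-min IMAP binding in the dark.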

T2 sequence (P11802 whole entry): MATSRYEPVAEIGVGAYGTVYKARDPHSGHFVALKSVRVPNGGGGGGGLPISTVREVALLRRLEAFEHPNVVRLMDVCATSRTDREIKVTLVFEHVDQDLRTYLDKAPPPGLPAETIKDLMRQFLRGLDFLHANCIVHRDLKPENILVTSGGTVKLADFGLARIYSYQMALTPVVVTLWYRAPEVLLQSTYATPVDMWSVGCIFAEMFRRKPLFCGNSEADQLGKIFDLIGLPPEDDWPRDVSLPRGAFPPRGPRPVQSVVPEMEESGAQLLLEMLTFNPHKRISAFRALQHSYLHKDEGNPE
T2 sequence (P30281 whole entry partner): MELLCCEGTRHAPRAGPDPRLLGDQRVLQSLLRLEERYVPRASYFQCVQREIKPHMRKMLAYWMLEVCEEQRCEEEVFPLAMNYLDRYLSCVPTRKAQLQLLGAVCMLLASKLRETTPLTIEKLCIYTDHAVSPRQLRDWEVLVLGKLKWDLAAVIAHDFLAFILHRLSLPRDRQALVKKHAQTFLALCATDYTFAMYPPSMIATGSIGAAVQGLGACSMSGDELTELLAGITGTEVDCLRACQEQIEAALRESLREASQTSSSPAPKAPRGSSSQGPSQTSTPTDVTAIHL

SMILES | IC50 (CDK2/cyclin A2) [nM] | IC50 (CDK4/cyclin D3) [nM]
CCNc1nc(C(F)F)cc2cnc(Nc3ccc(N4CCNCC4=O)cn3)nc12 [Compound 820] | 10 to 100 | < 10
CC(C)CNc1nc([C@@H](C)O)cc2cnc(Nc3ccc(N4CCNCC4=O)cn3)nc12 [Compound 826] | ≥ 100 | < 10
C[C@@H](O)c1cc2cnc(Nc3ccc(C4CCN(CC(=O)O)CC4)cn3)nc2c(NC(C)(C)C)n1 [Compound 830] | ≥ 100 | < 10
CC(C)Nc1nc([C@@H](C)O)cc2cnc(Nc3ccc(N4CCN(CC(=O)O)CC4=O)cn3)nc12 [Compound 833] | ≥ 100 | < 10
CC(C)Nc1nc([C@@H](C)O)cc2cnc(Nc3ccc(N4CCCC(C(=O)O)C4)cn3)nc12 (some centres unmarked) [Compound 835] | ≥ 100 | 10 to 100
CC(C)Nc1nc([C@@H](C)O)cc2cnc(Nc3ccc(N4CCC(C(=O)O)CC4)cn3)nc12 [Compound 836] | ≥ 100 | 10 to 100
CO[C@H](C)c1cc2cnc(Nc3ccc(NC(=O)C4CCCCN4)cn3)nc2c(NC(C)C)n1 (some centres unmarked) [Compound 838] | ≥ 100 | < 10
C[C@H]1CC[C@H](Nc2nc(C(F)F)cc3cnc(Nc4ccc(CN5CCC(C(=O)O)CC5)cn4)nc23)CC1 [Compound 839] | ≥ 100 | < 10
CC(C)CNc1nc([C@@H](C)O)cc2cnc(Nc3ccc(CN4CCN(CCO)CC4)cn3)nc12 [Compound 846] | ≥ 100 | < 10
C[C@@H](O)c1cc2cnc(Nc3ccc(CN4CCN(CCO)CC4)cn3)nc2c(NCC2CCOCC2)n1 [Compound 847] | ≥ 100 | < 10
Cc1nc(Nc2ncc3c(Cl)c(C(F)F)nc(NC(C)C)c3n2)ccc1N1CCNCC1=O [Compound 851] | ≥ 100 | 10 to 100
CCCNc1nc([C@@H](C)OC)cc2cnc(Nc3ccc(CN4CCN(CCO)CC4)cn3)nc12 [Compound 852] | ≥ 100 | < 10
CCCCNc1nc([C@@H](C)OC)cc2cnc(Nc3ccc(CN4CCNCC4)cn3)nc12 [Compound 854] | ≥ 100 | < 10
O=C1CNCCN1Cc1ccc(Nc2ncc3cc(C(F)F)nc(N[C@H]4CCCOC4)c3n2)nc1 [Compound 856] | ≥ 100 | < 10
CCCNc1nc([C@@H](C)OC)cc2cnc(Nc3ccc(CN4C[C@H]5C[C@@H]4CN5)cn3)nc12 [Compound 857] | ≥ 100 | < 10
CCCNc1nc([C@@H](C)OC)cc2cnc(Nc3ccc(N4C[C@H]5C[C@@H]4CN5)nn3)nc12 [Compound 858] | ≥ 100 | < 10
CO[C@H](C)c1cc2cnc(Nc3ccc(CN4CCNCC4)cn3)nc2c(NCC(C)C)n1 [Compound 861] | ≥ 100 | < 10
CO[C@H](C)c1cc2cnc(Nc3ccc(N4CCNCC4)nn3)nc2c(NCC(C)C)n1 [Compound 862] | ≥ 100 | < 10
CC(C)Nc1nc([C@@H](C)O)cc2cnc(Nc3ccc(N4CCNCC4C(F)(F)F)nn3)nc12 (some centres unmarked) [Compound 863] | ≥ 100 | < 10
CC(C)Nc1nc([C@@H](C)O)cc2cnc(Nc3ccc(OCCNS(C)(=O)=O)cn3)nc12 [Compound 867] | ≥ 100 | < 10
CO[C@H](C)c1cc2cnc(Nc3ccc(OC4CCNCC4)cn3)nc2c(NC2CCOCC2)n1 [Compound 873] | ≥ 100 | < 10

Continued, values first:

IC50 (CDK2/cyclin A2) [nM] | IC50 (CDK4/cyclin D3) [nM] | SMILES
≥ 100 | < 10 | CCNc1nc([C@@H](C)OC)cc2cnc(Nc3ccc(N4CCNCC4)nn3)nc12 [Compound 817]
10 to 100 | < 10 | CCCNc1nc(C(F)F)cc2cnc(Nc3ccc(N4CCNCC4=O)cn3)nc12 [Compound 821]
10 to 100 | < 10 | O=C1CNCCN1c1ccc(Nc2ncc3cc(C(F)F)nc(NC4CCOCC4)c3n2)nc1 [Compound 822]
≥ 100 | 10 to 100 | O=C1CNCCN1c1ccc(Nc2ncc3cc(C(F)F)nc(NCC4CCOCC4)c3n2)nc1 [Compound 823]
≥ 100 | < 10 | Cc1nc(Nc2ncc3cc(C4CCOC4)nc(NC(C)C)c3n2)ccc1N1CCNCC1=O (centres unmarked) [Compound 824]
≥ 100 | < 10 | CC(C)Nc1nc([C@@H](C)O)cc2cnc(Nc3ccc(N4CC5CCCN5CC4=O)cn3)nc12 (some centres unmarked) [Compound 825]
≥ 100 | < 10 | CC(C)CNc1nc([C@@H](C)O)cc2cnc(Nc3ccc(N4CCNCC4)nn3)nc12 [Compound 827]
≥ 100 | 10 to 100 | CC(C)Nc1nc([C@@H](C)O)cc2cnc(Nc3ccc(N4CCC(CCC(=O)O)CC4)nn3)nc12 [Compound 828]
≥ 100 | < 10 | CC(C)Nc1nc([C@@H](C)O)cc2cnc(Nc3ccc(C4CCN(CC(=O)O)CC4)cn3)nc12 [Compound 829]
≥ 100 | < 10 | C[C@@H](O)c1cc2cnc(Nc3ccc(C4CCN(C(C)(C)C(=O)O)CC4)cn3)nc2c(NC(C)(C)C)n1 [Compound 834]
10 to 100 | < 10 | C[C@@H](O)c1cc2cnc(Nc3ccc(CN4CCC(C(=O)O)CC4)cn3)nc2c(NC(C)(C)C)n1 [Compound 837]
≥ 100 | ≥ 100 | O=C1CNCCN1c1ccc(Nc2ncc3c(Cl)c(C(F)F)nc(NCC4CCOCC4)c3n2)nc1 [Compound 840]
≥ 100 | < 10 | CC(C)Nc1nc([C@@H](C)O)c(Cl)c2cnc(Nc3ccc(N4CCN(CCO)CCC4=O)cn3)nc12 [Compound 841]
≥ 100 | 10 to 100 | CO[C@H](C)c1nc(NC(C)C)c2nc(Nc3ccc(C(=O)N4CCNCC4)cn3)ncc2c1Cl [Compound 842]
≥ 100 | < 10 | CCCCNc1nc([C@@H](C)O)cc2cnc(Nc3ccc(CN4CCN(CCO)CC4)cn3)nc12 [Compound 845]
10 to 100 | < 10 | O=C1CNCCN1c1ccc(Nc2ncc3cc(C(F)F)nc(N[C@H]4CCCOC4)c3n2)nc1 [Compound 849]
10 to 100 | 10 to 100 | CC(C)Nc1nc(C(F)F)c(Cl)c2cnc(Nc3ccc(N4CCNCC4=O)cn3)nc12 [Compound 850]
≥ 100 | < 10 | CCCCNc1nc([C@@H](C)OC)cc2cnc(Nc3ccc(CN4CCN(CCO)CC4)cn3)nc12 [Compound 853]
≥ 100 | < 10 | CCCCNc1nc([C@@H](C)OC)cc2cnc(Nc3ccc(N4CCNCC4)nn3)nc12 [Compound 855]
≥ 100 | < 10 | CO[C@H](C)c1cc2cnc(Nc3ccc(N4C[C@H]5C[C@@H]4CN5)nn3)nc2c(NC(C)C)n1 [Compound 859]
≥ 100 | < 10 | CO[C@H](C)c1cc2cnc(Nc3ccc(CN4CCN(CCO)CC4)cn3)nc2c(N[C@H]2CCCOC2)n1 [Compound 860]
≥ 100 | < 10 | CC(C)Nc1nc(C(C)O)cc2cnc(Nc3ccc(OC4CNCCC4F)cn3)nc12 (centres unmarked) [Compound 864]
≥ 100 | < 10 | CNCCOc1ccc(Nc2ncc3cc([C@@H](C)O)nc(N(C)[C@H]4CCCOC4)c3n2)nc1 [Compound 868]
≥ 100 | 10 to 100 | CC(C)N(C)c1nc([C@@H](C)O)cc2cnc(Nc3ccc(N4CCNCC4=O)cn3)nc12 [Compound 871]
≥ 100 | 10 to 100 | C[C@@H](O)c1cc2cnc(Nc3ccc(N4CCNCC4=O)cn3)nc2c(N(C)[C@H]2CCCOC2)n1 [Compound 872]
